Measurements published in US6809065B2, “Herbicide containing substituted pyrazole derivative as active ingredient” (SDS Biotech K.K., priority 2001, dated 2004).

Key:
[1] = tested on: rice (Oryza sative, variety: Koshihikari); test: Paddy field treatment (Test Example 3), crop; type: in vivo, Oryza sativa; settings: transplanted rice two-leaf period, water surface treatment 10th day after transplantation, 1 kg active ingredient per hectare, evaluated 21st day, lower index = higher safety
Outline: (§1)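 Pot test, flooded paddy soil (4 cm water); weeds sown, 2-leaf rice (Koshihikari) transplanted. Day 10 post-transplant: WP dropped on water, 1 kg a.i./ha. Score index at 21 d after application; higher = stronger herbicidal effect.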

Echinochloa spp. = test: Paddy field treatment (Test Example 3); type: in vivo, Echinochloa crusgalli; settings: paddy pot, submerged 4 cm, dropped on water surface 10th day after transplantation, 1 kg active ingredient per hectare, evaluated 21st day
Outline: as §1

Digitaria adscendens [2] = test: Upland field foliage treatment (Test Example 1); type: in vivo; settings: foliage treatment 14th day after sowing, wettable powder, 1 kg active ingredient per hectare, evaluated 21st day after application
Outline: (§2)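 Read-out is a visual index scored 21 days after treatment. Higher values mean more herbicidal effect on weeds and lower values mean better crop safety. Plants were raised from seed in upland soil and received a leaf-surface spray of 1 kg active ingredient per hectare at 14 days.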

Chenopodium album [3] = test: Upland field foliage treatment (Test Example 1); type: in vivo; settings: foliage treatment 14th day after sowing, wettable powder, 1 kg active ingredient per hectare, evaluated 21st day after application
Outline: as §2

Stellaria media [4] = test: Upland field foliage treatment (Test Example 1); type: in vivo; settings: foliage treatment 14th day after sowing, wettable powder, 1 kg active ingredient per hectare, evaluated 21st day after application
Outline: as §2

Setaria viridis [5] = test: Upland field foliage treatment (Test Example 1); type: in vivo; settings: foliage treatment 14th day after sowing, wettable powder, 1 kg active ingredient per hectare, evaluated 21st day after application
Outline: as §2

soybean (Glycine max) [6] = test: Upland field foliage treatment (Test Example 1), crop; type: in vivo; settings: foliage treatment 14th day after sowing, 1 kg active ingredient per hectare, evaluated 21st day, lower index = higher safety
Outline: as §2

[7] = tested on: wheat (Triticum aestivum); test: as above; type: in vivo; settings: foliage treatment 14th day after sowing, 1 kg active ingredient per hectare, evaluated 21st day, lower index = higher safety
Outline: as §2

Digitaria adscendens [8] = test: Upland soil treatment (Test Example 2); type: in vivo; settings: soil surface treatment next day after sowing, wettable powder, 1 kg active ingredient per hectare, evaluated 21st day after application
Outline: (§3)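 Scored 21 days post-application on an index scale where higher values mean greater herbicidal effect on weeds and lower values mean greater crop safety. Treatment was a water-diluted wettable powder sprayed evenly onto the soil surface at 1 kg active ingredient per hectare, one day after seeding.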

Chenopodium album [9] = test: Upland soil treatment (Test Example 2); type: in vivo; settings: soil surface treatment next day after sowing, wettable powder, 1 kg active ingredient per hectare, evaluated 21st day after application
Outline: as §3

Stellaria media [10] = test: Upland soil treatment (Test Example 2); type: in vivo; settings: soil surface treatment next day after sowing, wettable powder, 1 kg active ingredient per hectare, evaluated 21st day after application
Outline: as §3

Setaria viridis [11] = test: Upland soil treatment (Test Example 2); type: in vivo; settings: soil surface treatment next day after sowing, wettable powder, 1 kg active ingredient per hectare, evaluated 21st day after application
Outline: as §3

soybean (Glycine max) [12] = test: Upland soil treatment (Test Example 2), crop; type: in vivo; settings: soil surface treatment next day after sowing, 1 kg active ingredient per hectare, evaluated 21st day, lower index = higher safety
Outline: as §3

[13] = tested on: wheat (Triticum aestivum); test: Upland soil treatment (Test Example 2), crop; type: in vivo; settings: soil surface treatment next day after sowing, 1 kg active ingredient per hectare, evaluated 21st day, lower index = higher safety
Outline: as §3

Scirpus juncoides = test: Paddy field treatment (Test Example 3); type: in vivo; settings: paddy pot, submerged 4 cm, dropped on water surface 10th day after transplantation, 1 kg active ingredient per hectare, evaluated 21st day
Outline: as §1

Monochoria vaginalis = test: Paddy field treatment (Test Example 3); type: in vivo; settings: paddy pot, submerged 4 cm, dropped on water surface 10th day after transplantation, 1 kg active ingredient per hectare, evaluated 21st day
Outline: as §1

Ammannia multiflora = test: Paddy field treatment (Test Example 3); type: in vivo; settings: paddy pot, submerged 4 cm, dropped on water surface 10th day after transplantation, 1 kg active ingredient per hectare, evaluated 21st day
Outline: as §1

Compound | Herbicidal activity Oryza sativa [1] | Herbicidal activity Echinochloa spp. (Echinochloa spp.) | Herbicidal activity Digitaria adscendens (Digitaria adscendens [2]) | Herbicidal activity Chenopodium album (Chenopodium album [3]) | Herbicidal activity Stellaria media (Stellaria media [4]) | Herbicidal activity Setaria viridis (Setaria viridis [5]) | Herbicidal activity Glycine max (soybean (Glycine max) [6]) | Herbicidal activity Triticum aestivum [7] | Herbicidal activity Digitaria adscendens (Digitaria adscendens [8]) | Herbicidal activity Chenopodium album (Chenopodium album [9]) | Herbicidal activity Stellaria media (Stellaria media [10]) | Herbicidal activity Setaria viridis (Setaria viridis [11]) | Herbicidal activity Glycine max (soybean (Glycine max) [12]) | Herbicidal activity Triticum aestivum [13] | Herbicidal activity Scirpus juncoides (Scirpus juncoides) | Herbicidal activity Monochoria vaginalis (Monochoria vaginalis) | Herbicidal activity Ammannia multiflora (Ammannia multiflora)
COC=C(Cn1nc(-c2c(Cl)cccc2Cl)c(Cl)c1C)C(=O)OC [Compound 23] | 0 (herbicidal effect of not less than 0% by weight and less than 10% by weight) | 3 (herbicidal effect of not less than 50% by weight and less than 70% by weight) | 4 (herbicidal effect of not less than 70% by weight and less than 90% by weight) | 4 (herbicidal effect of not less than 70% by weight and less than 90% by weight) | 5 (herbicidal effect of not less than 90% by weight) | 4 (herbicidal effect of not less than 70% by weight and less than 90% by weight) | 0 (herbicidal effect of not less than 0% by weight and less than 10% by weight) | 0 (herbicidal effect of not less than 0% by weight and less than 10% by weight) | 4 (herbicidal effect of not less than 70% by weight and less than 90% by weight) | 4 (herbicidal effect of not less than 70% by weight and less than 90% by weight) | 4 (herbicidal effect of not less than 70% by weight and less than 90% by weight) | 4 (herbicidal effect of not less than 70% by weight and less than 90% by weight) | 0 (herbicidal effect of not less than 0% by weight and less than 10% by weight) | 0 (herbicidal effect of not less than 0% by weight and less than 10% by weight) | 3 (herbicidal effect of not less than 50% by weight and less than 70% by weight) | 4 (herbicidal effect of not less than 70% by weight and less than 90% by weight) | 5 (herbicidal effect of not less than 90% by weight)
COC=C(Cn1nc(-c2ccc(Cl)c(Cl)c2)c(Cl)c1C)C(=O)OC [Compound 24] | 0 (herbicidal effect of not less than 0% by weight and less than 10% by weight) | 4 (herbicidal effect of not less than 70% by weight and less than 90% by weight) | 4 (herbicidal effect of not less than 70% by weight and less than 90% by weight) | 4 (herbicidal effect of not less than 70% by weight and less than 90% by weight) | 4 (herbicidal effect of not less than 70% by weight and less than 90% by weight) | 4 (herbicidal effect of not less than 70% by weight and less than 90% by weight) | 0 (herbicidal effect of not less than 0% by weight and less than 10% by weight) | 0 (herbicidal effect of not less than 0% by weight and less than 10% by weight) | 4 (herbicidal effect of not less than 70% by weight and less than 90% by weight) | 4 (herbicidal effect of not less than 70% by weight and less than 90% by weight) | 4 (herbicidal effect of not less than 70% by weight and less than 90% by weight) | 4 (herbicidal effect of not less than 70% by weight and less than 90% by weight) | 0 (herbicidal effect of not less than 0% by weight and less than 10% by weight) | 0 (herbicidal effect of not less than 0% by weight and less than 10% by weight) | 3 (herbicidal effect of not less than 50% by weight and less than 70% by weight) | 3 (herbicidal effect of not less than 50% by weight and less than 70% by weight) | 3 (herbicidal effect of not less than 50% by weight and less than 70% by weight)
COC=C(Cn1nc(-c2cc(Cl)cc(Cl)c2)c(Cl)c1C)C(=O)OC [Compound 25] | 0 (herbicidal effect of not less than 0% by weight and less than 10% by weight) | 3 (herbicidal effect of not less than 50% by weight and less than 70% by weight) | 4 (herbicidal effect of not less than 70% by weight and less than 90% by weight) | 4 (herbicidal effect of not less than 70% by weight and less than 90% by weight) | 4 (herbicidal effect of not less than 70% by weight and less than 90% by weight) | 4 (herbicidal effect of not less than 70% by weight and less than 90% by weight) | 0 (herbicidal effect of not less than 0% by weight and less than 10% by weight) | 0 (herbicidal effect of not less than 0% by weight and less than 10% by weight) | 4 (herbicidal effect of not less than 70% by weight and less than 90% by weight) | 4 (herbicidal effect of not less than 70% by weight and less than 90% by weight) | 4 (herbicidal effect of not less than 70% by weight and less than 90% by weight) | 4 (herbicidal effect of not less than 70% by weight and less than 90% by weight) | 0 (herbicidal effect of not less than 0% by weight and less than 10% by weight) | 0 (herbicidal effect of not less than 0% by weight and less than 10% by weight) | 3 (herbicidal effect of not less than 50% by weight and less than 70% by weight) | 3 (herbicidal effect of not less than 50% by weight and less than 70% by weight) | 3 (herbicidal effect of not less than 50% by weight and less than 70% by weight)
COC=C(Cn1nc(-c2cccc(C)c2)c(Br)c1C)C(=O)OC [Compound 26] | 0 (herbicidal effect of not less than 0% by weight and less than 10% by weight) | 5 (herbicidal effect of not less than 90% by weight) | 5 (herbicidal effect of not less than 90% by weight) | 5 (herbicidal effect of not less than 90% by weight) | 5 (herbicidal effect of not less than 90% by weight) | 4 (herbicidal effect of not less than 70% by weight and less than 90% by weight) | 1 (herbicidal effect of not less than 10% by weight and less than 30% by weight) | 0 (herbicidal effect of not less than 0% by weight and less than 10% by weight) | 4 (herbicidal effect of not less than 70% by weight and less than 90% by weight) | 4 (herbicidal effect of not less than 70% by weight and less than 90% by weight) | 4 (herbicidal effect of not less than 70% by weight and less than 90% by weight) | 4 (herbicidal effect of not less than 70% by weight and less than 90% by weight) | 0 (herbicidal effect of not less than 0% by weight and less than 10% by weight) | 0 (herbicidal effect of not less than 0% by weight and less than 10% by weight) | 4 (herbicidal effect of not less than 70% by weight and less than 90% by weight) | 5 (herbicidal effect of not less than 90% by weight) | 5 (herbicidal effect of not less than 90% by weight)
